Earlier results, collected in PMC6768323, “Adverse Maternal, Fetal, and Postnatal Effects of Hexafluoropropylene Oxide Dimer Acid (GenX) from Oral Gestational Exposure in Sprague-Dawley Rats” (Environmental Health Perspectives, 2019).
Where two headings read alike, the source gives them in different places.

System: rat
Conditions: cited from earlier work

Structure (SMILES): O=S(=O)(O)C(F)(F)C(F)(F)C(F)(F)C(F)(F)C(F)(F)C(F)(F)C(F)(F)C(F)(F)F [PFOS, perfluorooctane sulfonate]
- dose with increased neonatal mortality (ref Lau et al. 2003): ≥ 3 mg/kg
- dose with lower pup body weights (ref Lau et al. 2003): ≥ 2 mg/kg
- dose with neonatal mortality (ref Luebker et al. 2005a, 2005b): ≥ 1.6 mg/kg
- dose with lower pup body weights (ref Luebker et al. 2005b): ≥ 0.4 mg/kg
